Measured values as given in PMC13253105, “Chemical inhibition of a CBASS anti-bacteriophage defense” (iScience, 2026).
Like-named read-outs stand apart in the source and are kept apart here. Where a SMILES comes first, the peptide text is derived from it. The star is where a group is joined. Cbz = O=C(OCc1ccccc1)*; Bn = c1ccc(C*)cc1

Legend:
[1] = test system: PsCap5 in E. coli BL21 (DE3) cells; type: cell-based
Experimental: The same E. coli BL21 (DE3) cells carrying the PsCap5 expression plasmid from above were grown in LB medium with 50 μg/mL kanamycin at 37°C with 220 rpm shaking to an OD600 of ∼0.6 (1 cm pathlength). […] The bacterial cultures were then serially diluted from 10-1 to 10−6, and 5 μL of each was spotted onto LB agar petri dishes supplemented with kanamycin. After overnight incubation, the plates were photographed and colonies formed by viable cells were counted.

LlCap5 = LlCap5 (Lactococcus cremoris, UniProt A0A1E7G0A2); assay: biochemical; parameters: species or system Lactococcus lactis
Sequence of LlCap5 (A0A1E7G0A2 1-385): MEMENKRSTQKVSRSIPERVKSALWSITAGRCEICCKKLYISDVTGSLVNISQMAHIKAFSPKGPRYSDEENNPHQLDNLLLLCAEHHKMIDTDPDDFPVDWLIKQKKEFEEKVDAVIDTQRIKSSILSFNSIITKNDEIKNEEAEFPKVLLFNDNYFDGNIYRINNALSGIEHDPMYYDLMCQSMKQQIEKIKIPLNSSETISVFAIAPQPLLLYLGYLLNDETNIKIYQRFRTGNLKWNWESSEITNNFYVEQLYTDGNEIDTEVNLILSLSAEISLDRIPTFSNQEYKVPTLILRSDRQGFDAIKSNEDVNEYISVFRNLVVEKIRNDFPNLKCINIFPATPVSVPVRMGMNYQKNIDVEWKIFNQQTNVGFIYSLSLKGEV

PsCap5 = PsCap5 (Pseudomonas syringae pv. actinidiae, UniProt A0A2P0QGK5); assay: biochemical; settings: for inhibition of PsCap5 in rescreening of the compound library: normalized DNA band intensity, threshold 0.25
Sequence of PsCap5 (A0A2P0QGK5 10-397 limits assumed): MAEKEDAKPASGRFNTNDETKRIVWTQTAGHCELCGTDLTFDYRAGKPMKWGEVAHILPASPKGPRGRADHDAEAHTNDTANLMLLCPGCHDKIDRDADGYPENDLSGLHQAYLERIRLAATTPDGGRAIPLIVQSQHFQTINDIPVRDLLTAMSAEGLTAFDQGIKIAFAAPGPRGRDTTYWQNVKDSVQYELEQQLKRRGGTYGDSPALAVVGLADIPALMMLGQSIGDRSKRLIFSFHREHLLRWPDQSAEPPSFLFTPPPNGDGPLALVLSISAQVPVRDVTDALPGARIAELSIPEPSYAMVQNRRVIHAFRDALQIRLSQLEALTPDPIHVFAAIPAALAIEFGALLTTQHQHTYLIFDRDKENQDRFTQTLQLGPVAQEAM

DpnI = DpnI (Streptococcus pneumoniae serotype 4, UniProt P0A459); type: biochemical; settings: 1 μL 100 μM inhibitor 20 in 10 μL buffer
Sequence of DpnI (P0A459 whole entry, looked up): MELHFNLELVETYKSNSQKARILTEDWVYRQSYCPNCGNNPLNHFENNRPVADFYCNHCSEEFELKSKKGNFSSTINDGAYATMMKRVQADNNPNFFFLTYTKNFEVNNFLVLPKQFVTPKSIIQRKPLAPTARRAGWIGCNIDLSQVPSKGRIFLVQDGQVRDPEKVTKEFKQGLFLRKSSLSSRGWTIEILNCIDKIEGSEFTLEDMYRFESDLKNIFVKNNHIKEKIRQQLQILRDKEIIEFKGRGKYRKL

Cas9 = Cas9 (Streptococcus pyogenes serotype M1, UniProt Q99ZW2); type: biochemical; settings: inhibitor 20 (100 µM)
Sequence of Cas9 (Q99ZW2 whole entry, looked up): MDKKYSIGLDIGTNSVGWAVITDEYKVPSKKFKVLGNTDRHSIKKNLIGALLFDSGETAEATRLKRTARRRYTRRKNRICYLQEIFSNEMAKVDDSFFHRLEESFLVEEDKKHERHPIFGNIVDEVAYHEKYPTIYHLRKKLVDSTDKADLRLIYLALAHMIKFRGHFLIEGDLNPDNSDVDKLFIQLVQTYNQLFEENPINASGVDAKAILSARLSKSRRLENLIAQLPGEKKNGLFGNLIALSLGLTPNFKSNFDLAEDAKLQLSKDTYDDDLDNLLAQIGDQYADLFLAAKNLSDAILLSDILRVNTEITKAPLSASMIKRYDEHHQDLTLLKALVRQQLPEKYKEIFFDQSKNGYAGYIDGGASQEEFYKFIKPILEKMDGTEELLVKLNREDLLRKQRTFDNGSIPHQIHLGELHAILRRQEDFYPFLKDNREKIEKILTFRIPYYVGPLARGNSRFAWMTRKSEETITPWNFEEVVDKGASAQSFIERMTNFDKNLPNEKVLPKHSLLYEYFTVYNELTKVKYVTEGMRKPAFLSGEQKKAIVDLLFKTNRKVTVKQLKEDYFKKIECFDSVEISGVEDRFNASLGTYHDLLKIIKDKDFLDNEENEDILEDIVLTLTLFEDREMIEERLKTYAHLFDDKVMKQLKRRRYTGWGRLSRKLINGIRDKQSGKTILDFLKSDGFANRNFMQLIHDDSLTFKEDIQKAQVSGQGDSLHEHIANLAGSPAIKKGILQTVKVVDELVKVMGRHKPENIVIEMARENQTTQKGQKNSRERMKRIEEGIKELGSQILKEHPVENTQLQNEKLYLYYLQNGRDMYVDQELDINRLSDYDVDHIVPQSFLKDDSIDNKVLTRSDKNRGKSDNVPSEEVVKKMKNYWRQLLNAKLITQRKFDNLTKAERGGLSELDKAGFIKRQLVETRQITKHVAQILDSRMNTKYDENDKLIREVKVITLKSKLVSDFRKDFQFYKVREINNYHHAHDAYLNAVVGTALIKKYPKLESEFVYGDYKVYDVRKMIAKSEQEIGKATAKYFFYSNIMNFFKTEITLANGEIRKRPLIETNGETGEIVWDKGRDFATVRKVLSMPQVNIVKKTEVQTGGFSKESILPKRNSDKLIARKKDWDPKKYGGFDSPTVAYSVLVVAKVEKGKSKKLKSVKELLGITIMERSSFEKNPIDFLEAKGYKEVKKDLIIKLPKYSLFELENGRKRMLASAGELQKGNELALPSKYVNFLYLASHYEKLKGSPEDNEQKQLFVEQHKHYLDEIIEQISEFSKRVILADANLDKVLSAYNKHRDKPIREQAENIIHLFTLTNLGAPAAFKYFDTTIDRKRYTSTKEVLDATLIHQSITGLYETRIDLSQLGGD

| Compound | IC50 (LlCap5) [µM] | inhibition of PsCap5 in rescreening of the compound library (PsCap5) | IC50 (PsCap5) [µM] | further results |
| --- | --- | --- | --- | --- |
| 3′,2′-cGAMP [reference compound] | – | – | – | bacterial growth of E. coli carrying PsCap5 plasmid after extrinsic addition of activating ligand [1]: severe restriction of bacterial growth |
| NS(=O)(=O)c1ccc(CCNC(=O)CCCn2c(SCc3cc(=O)n4cc(Br)ccc4n3)nc3ccsc3c2=O)cc1 [Compound 2] | 230 ± 10 | did not noticeably inhibit PsCap5 | – | – |
| NS(=O)(=O)c1ccc(CCNC(=O)CSc2nc3ccccc3c(=O)n2Cn2c(SCC(=O)NCCc3ccc(S(N)(=O)=O)cc3)nc3ccccc3c2=O)cc1 [Compound 4] | – | – | – | inhibition of LlCap5 in biochemical screening (LlCap5; normalized DNA band intensity, threshold for activity 0.4): inactive against LlCap5; IC50 (PsCap5; read-out: IC50 against PsCap5, 50 nM PsCap5, 10 nM 3′,2′-cGAMP, 37°C 15 min, ±S.E.M. of biological triplicates): 11 ± 1 µM; rescue of E. coli from cGAMP-Cap5-induced toxicity [1]: failed to rescue |
| O=C(CCN1C(=O)c2ccccc2C1=O)NCCCCCCNC(=O)CCN1C(=O)c2ccccc2C1=O [Compound 19] | > 100 | did not noticeably inhibit PsCap5 | – | – |
| Cc1ccc(CNC(=O)c2ccc(Cn3c(=O)c4ccccc4n(CC(=O)NCc4ccco4)c3=O)cc2)cc1 [Compound 20] | 120 ± 60 | – | 24 ± 8 | inhibition of DpnI (DpnI): failed to inhibit; inhibition of Cas9 (Cas9): failed to inhibit Cas9; recovery of viable cells (bacterial population) ([1]; 0.33 mM compound 20, 0.2 mM 3′,2′-cGAMP, 37°C 3 h): ~100 fold |
| COC(=O)C(NC(=O)C(Cc1ccc(OCc2ccccc2)cc1)NC(=O)C(Cc1ccccc1)NC(=O)CNC(=O)OCc1ccccc1)C(C)O (stereo not shown) [Compound 22] (Cbz-GFY(Bn)T-OMe; configuration not given here) | 58 ± 16 | did not noticeably inhibit PsCap5 | – | – |
| Cn1c(=O)[nH]c(=O)c2c1nc(SCCSc1nc3c(c(=O)[nH]c(=O)n3C)n1CCc1ccccc1)n2CCc1ccccc1 [Compound 36] | 140 ± 20 | – | 100 ± 20 | – |
| NC(=O)[C@H](Cc1ccc(O)cc1)NC(=O)[C@H](CCCCNC(=O)OCc1ccccc1)NC(=O)OCc1ccccc1 [Compound 37] | 260 ± 70 | – | 150 ± 40 | – |
